Laboratory results from patent US6534507B1 (Fabre-Kramer Pharmaceuticals, Inc., priority 1999, dated 2003).
“And” between values parts separate entries of the source, which are not always exact repeats. Equal values may be shown once.

Experiments:
[1] = molecular target: T1, 5-HT1A receptor (Homo sapiens, UniProt P08908); assay: human monoamine GPCR binding profile, 5-HT1A
T1 construct: expressed in transfected cells
T1 sequence (P08908 1-422): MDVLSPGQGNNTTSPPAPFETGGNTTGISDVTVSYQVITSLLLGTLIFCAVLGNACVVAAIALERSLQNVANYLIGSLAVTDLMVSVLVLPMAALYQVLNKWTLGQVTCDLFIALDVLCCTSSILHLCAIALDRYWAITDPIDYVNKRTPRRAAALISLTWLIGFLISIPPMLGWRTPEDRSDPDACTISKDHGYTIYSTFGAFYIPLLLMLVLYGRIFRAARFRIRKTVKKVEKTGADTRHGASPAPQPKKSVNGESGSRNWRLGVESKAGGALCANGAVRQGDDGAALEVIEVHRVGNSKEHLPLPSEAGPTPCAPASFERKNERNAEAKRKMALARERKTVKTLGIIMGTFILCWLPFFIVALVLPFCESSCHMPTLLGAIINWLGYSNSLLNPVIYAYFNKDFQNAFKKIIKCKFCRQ
Excerpt: (§1) As known in the art, human monoamine GPCR binding profiles were obtained using heterologously expressed cloned human GPCRs in the binding experiments. Both pKi and IC50 (nM concentration) values were obtained as well as an average value of each from at least three determinations.

[2] = molecular target: T2, D2A (Homo sapiens, UniProt P14416); assay: dopaminergic receptor binding, D2A; settings: result in words
T2 construct: expressed in transfected cells
Experimental: as §1
(§2) Dopaminergic receptors D2A, D2B, D3, and D4 were also tested.

[3] = molecular target: T3, D2B (Homo sapiens, UniProt P14416); assay: dopaminergic receptor binding, D2B; settings: result in words
T3 construct: expressed in transfected cells
Experimental: as §1, §2

[4] = molecular target: T4, D3 (Homo sapiens, UniProt P35462); assay: dopaminergic receptor binding, D3; settings: result in words
T4 construct: expressed in transfected cells
Experimental: as §1, §2

[5] = molecular target: T5, D4 (Homo sapiens, UniProt P21917); assay: dopaminergic receptor binding, D4
T5 construct: expressed in transfected cells
T5 sequence (P21917 1-419): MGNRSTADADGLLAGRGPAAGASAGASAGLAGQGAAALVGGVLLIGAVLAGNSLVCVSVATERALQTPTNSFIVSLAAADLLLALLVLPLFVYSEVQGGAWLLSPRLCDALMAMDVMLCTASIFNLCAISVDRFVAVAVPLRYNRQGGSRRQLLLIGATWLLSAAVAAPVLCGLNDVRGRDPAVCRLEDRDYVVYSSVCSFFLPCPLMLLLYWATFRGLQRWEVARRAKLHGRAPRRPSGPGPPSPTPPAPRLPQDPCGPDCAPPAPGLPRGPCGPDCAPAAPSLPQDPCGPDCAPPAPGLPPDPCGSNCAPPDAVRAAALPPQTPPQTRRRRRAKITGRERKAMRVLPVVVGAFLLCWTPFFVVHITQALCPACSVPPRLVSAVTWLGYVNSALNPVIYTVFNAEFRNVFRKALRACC
Experimental: as §1, §2

[6] = molecular target: T6, Alpha 2A (Homo sapiens, UniProt P08913); assay: alpha-adrenergic receptor binding, Alpha 2A; settings: result in words
T6 construct: expressed in transfected cells
T6 sequence (P08913 1-465): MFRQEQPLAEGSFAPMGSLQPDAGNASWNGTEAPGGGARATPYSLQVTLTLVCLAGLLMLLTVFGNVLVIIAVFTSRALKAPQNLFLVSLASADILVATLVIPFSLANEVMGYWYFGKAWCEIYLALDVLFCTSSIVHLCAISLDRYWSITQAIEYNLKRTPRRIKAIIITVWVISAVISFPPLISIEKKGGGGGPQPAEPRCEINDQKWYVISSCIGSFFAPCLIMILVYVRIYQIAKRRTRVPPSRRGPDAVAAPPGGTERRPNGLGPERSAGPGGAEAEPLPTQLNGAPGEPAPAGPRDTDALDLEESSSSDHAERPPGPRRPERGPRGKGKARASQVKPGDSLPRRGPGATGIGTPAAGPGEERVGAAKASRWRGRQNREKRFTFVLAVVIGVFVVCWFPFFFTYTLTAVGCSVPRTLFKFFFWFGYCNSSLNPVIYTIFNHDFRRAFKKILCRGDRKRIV
Experimental: as §1, §2

[7] = molecular target: T7, Alpha 2B (Homo sapiens, UniProt P18089); assay: alpha-adrenergic receptor binding, Alpha 2B; settings: result in words
T7 construct: expressed in transfected cells
T7 sequence (P18089 1-450): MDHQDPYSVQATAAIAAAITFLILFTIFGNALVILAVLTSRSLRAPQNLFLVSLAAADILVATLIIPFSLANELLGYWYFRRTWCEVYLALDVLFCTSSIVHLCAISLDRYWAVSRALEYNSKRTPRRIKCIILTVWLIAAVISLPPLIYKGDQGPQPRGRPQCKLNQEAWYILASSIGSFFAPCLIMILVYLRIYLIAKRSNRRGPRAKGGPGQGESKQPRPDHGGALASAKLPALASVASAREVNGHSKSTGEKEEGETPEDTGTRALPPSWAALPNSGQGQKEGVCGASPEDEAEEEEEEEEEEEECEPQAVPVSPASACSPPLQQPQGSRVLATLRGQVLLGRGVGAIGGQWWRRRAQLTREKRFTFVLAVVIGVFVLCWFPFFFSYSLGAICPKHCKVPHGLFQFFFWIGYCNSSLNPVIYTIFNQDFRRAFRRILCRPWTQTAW
Experimental: as §1, §2

[8] = molecular target: T8, Alpha 2C receptor (Homo sapiens, UniProt P18825); assay: alpha-adrenergic receptor binding, Alpha 2C; settings: result in words
T8 construct: expressed in transfected cells
T8 sequence (P18825 1-462): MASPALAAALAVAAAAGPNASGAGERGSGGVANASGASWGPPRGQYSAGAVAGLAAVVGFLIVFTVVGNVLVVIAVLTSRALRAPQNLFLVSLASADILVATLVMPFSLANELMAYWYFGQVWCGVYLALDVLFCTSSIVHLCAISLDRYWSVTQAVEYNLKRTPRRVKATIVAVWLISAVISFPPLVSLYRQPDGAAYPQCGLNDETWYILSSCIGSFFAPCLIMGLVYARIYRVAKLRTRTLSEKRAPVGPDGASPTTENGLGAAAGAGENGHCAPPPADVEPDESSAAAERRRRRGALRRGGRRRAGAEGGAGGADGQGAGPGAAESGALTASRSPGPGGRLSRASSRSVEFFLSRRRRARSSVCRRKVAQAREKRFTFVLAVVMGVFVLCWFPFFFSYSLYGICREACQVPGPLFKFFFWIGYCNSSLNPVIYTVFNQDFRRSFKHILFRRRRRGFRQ
Experimental: as §1, §2

[9] = molecular target: T9, M1 (Homo sapiens, UniProt P11229); assay: muscarinic receptor binding, M1; settings: read-out: pKi M1 (converted)
T9 construct: expressed in transfected cells
T9 sequence (P11229 1-460): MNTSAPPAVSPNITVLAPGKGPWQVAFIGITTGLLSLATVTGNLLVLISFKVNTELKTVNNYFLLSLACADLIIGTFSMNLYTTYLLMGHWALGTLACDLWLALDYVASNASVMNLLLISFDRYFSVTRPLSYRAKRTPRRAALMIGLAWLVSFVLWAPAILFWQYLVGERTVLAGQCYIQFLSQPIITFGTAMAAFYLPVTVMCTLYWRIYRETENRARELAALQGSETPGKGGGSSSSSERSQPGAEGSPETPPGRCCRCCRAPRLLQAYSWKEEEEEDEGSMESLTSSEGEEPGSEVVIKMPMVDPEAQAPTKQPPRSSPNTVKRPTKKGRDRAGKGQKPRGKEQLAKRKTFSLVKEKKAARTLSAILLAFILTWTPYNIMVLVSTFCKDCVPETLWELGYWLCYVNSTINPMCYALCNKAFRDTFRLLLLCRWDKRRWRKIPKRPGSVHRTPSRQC
Excerpt: as §1

[10] = molecular target: T10, M2 (Homo sapiens, UniProt P08172); assay: muscarinic receptor binding, M2; settings: read-out: pKi M2 (converted)
T10 construct: expressed in transfected cells
T10 sequence (P08172 1-466): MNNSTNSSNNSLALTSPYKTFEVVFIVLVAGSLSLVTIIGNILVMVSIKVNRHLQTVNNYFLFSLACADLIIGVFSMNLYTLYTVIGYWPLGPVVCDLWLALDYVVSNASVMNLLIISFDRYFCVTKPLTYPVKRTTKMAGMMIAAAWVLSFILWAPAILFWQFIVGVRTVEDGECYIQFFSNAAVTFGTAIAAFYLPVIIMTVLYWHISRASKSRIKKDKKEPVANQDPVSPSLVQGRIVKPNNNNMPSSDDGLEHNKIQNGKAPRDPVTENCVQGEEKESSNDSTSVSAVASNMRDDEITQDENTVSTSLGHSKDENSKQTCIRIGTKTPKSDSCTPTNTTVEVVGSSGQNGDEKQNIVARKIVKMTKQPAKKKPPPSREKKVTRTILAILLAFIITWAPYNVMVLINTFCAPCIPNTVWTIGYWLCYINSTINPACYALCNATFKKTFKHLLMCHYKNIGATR
Excerpt: as §1

[11] = molecular target: T11, M3 (Homo sapiens, UniProt P20309); assay: muscarinic receptor binding, M3; settings: read-out: pKi M3 (converted)
T11 construct: expressed in transfected cells
Excerpt: as §1

[12] = molecular target: T12, M4 (Homo sapiens, UniProt P08173); assay: muscarinic receptor binding, M4; settings: read-out: pKi M4 (converted)
T12 construct: expressed in transfected cells
T12 sequence (P08173 1-479): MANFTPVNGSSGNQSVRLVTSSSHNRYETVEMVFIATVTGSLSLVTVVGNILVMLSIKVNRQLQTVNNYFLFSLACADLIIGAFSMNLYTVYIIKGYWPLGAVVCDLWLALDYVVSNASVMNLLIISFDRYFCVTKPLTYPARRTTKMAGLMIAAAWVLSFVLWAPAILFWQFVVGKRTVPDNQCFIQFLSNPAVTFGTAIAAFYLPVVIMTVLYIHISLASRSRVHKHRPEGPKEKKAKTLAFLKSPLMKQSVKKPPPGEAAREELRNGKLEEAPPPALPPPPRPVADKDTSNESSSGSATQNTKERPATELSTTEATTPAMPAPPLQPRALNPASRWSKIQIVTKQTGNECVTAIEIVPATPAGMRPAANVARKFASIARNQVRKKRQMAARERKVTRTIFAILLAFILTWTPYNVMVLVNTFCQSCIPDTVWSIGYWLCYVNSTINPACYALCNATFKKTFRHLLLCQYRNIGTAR
Excerpt: as §1

[13] = plasma levels of 3-OH gepirone after administration of gepirone; type: in vivo; settings: human subjects administered a dose of gepirone; FIG. 2; result in words
Experimental: “Time (H)” represents time after administration.
Each sample corresponds to a 0.5 ml plasma sample, extracted with 6 ml of (2:1) (v/v) hexane:chloroform for 1 hour. After separation by centrifuge, the organic layer is transferred to a 10 ml conical tube and 90 ul of 1% formic acid is added. The tube is vortexed for 10 minutes and centrifuged for 5 minutes. About 80 ul of the formic acid layer is transferred into injection vials for HPLC/MS analysis.

[14] = cited from earlier work; for half-life: result in words

T11 sequence (P20309 whole entry): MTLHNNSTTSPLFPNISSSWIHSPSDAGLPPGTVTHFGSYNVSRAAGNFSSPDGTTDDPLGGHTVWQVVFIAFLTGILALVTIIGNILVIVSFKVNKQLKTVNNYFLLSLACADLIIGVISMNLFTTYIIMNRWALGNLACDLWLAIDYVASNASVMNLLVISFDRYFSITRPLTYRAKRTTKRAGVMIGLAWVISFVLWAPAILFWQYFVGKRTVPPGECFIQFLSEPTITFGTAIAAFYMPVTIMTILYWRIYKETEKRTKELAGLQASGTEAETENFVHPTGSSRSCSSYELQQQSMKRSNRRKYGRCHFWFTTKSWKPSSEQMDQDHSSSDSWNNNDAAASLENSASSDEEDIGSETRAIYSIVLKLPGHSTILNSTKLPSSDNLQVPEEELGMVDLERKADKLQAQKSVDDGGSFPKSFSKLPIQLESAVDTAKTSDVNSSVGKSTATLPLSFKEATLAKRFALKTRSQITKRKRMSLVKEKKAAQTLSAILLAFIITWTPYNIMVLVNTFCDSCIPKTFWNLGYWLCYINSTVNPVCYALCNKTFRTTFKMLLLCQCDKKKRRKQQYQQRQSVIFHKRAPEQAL
T2 sequence (P14416 whole entry): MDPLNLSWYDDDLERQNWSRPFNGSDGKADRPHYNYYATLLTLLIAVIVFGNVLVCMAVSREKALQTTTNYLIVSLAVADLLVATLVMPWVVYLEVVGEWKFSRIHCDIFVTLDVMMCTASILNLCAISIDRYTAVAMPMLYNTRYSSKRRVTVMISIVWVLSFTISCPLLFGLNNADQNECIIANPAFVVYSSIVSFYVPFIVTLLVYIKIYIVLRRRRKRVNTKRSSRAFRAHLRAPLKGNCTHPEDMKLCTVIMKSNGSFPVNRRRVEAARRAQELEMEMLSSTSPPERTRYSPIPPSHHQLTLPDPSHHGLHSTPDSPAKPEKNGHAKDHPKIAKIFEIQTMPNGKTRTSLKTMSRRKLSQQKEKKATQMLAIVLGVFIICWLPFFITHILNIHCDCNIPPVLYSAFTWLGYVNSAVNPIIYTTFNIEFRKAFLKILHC
T3 sequence (P14416 1-414 isoform P14416-2): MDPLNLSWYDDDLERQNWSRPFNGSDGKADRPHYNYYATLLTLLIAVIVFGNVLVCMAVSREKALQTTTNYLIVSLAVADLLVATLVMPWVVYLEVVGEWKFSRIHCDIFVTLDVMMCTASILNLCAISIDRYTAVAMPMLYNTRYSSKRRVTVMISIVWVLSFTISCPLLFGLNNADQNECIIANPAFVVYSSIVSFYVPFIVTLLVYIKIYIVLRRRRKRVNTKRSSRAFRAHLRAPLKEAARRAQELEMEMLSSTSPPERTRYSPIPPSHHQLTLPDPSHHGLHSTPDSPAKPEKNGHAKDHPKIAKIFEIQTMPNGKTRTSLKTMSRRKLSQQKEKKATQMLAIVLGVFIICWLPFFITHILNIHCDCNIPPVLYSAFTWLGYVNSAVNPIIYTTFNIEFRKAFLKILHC
T4 sequence (P35462 whole entry): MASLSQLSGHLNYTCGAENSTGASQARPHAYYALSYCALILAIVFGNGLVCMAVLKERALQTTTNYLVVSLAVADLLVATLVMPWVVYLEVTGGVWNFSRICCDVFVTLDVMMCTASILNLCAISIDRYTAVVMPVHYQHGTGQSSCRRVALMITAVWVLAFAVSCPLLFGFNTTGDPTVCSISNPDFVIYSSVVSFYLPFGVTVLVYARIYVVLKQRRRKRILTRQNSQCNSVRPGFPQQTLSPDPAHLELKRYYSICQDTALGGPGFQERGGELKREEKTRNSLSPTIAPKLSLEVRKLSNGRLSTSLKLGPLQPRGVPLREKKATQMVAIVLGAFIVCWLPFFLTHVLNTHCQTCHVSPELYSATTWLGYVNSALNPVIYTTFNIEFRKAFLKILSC

Row | SMILES | IC50 ([1]; cloned human GPCR, average of at least three determinations) | selectivity for the 5-HT1A receptor among the serotonergic receptor subtypes ([1]; in vitro binding studies, result in words) | binding at D2A [2] | binding at D2B [3] | binding at D3 [4] | IC50 [5] | affinity at Alpha 2A [6] | affinity at Alpha 2B [7] | binding at the Alpha 2C receptor [8] | Ki [9] | Ki [10] | Ki [11] | Ki [12] | plasma levels of 3-OH gepirone [13] | half-life [14] | bioavailability ([14]; delivered orally)
1 | CC1(C)CC(=O)N(CCCCN2CCN(c3ncccn3)CC2)C(=O)C1O (stereo not drawn) [3-OH gepirone, 4,4,-dimethyl-3-hydroxy-1-[4-[4-(2-pyrimidinyl)-1-piperazinyl]butyl]-2,6-piperidinedione] | < 0.1 µM and ~0.058 µM | highly selective | insignificant dopaminergic binding | insignificant dopaminergic binding | insignificant dopaminergic binding | ~1.42 µM | did not display significant affinity | did not display significant affinity | weak binding | > 45.7 µM | > 45.7 µM | > 45.7 µM | > 45.7 µM | available quickly and persists in the plasma for extended periods of time |  | 
2 | O=C1CC2(CCCC2)CC(=O)N1CCCCN1CCN(c2ncccn2)CC1 [buspirone] |  |  |  |  |  |  |  |  |  |  |  |  |  |  | very short | 
3 | CC1(C)CC(=O)N(CCCCN2CCN(c3ncccn3)CC2)C(=O)C1 [gepirone, 4-dimethyl-1-[4-[4-(2-pyrimidinyl)-1-piperazinyl]butyl]-2,6-piperidinedione, reference compound] |  |  |  |  |  |  |  |  |  | > 45.7 µM | > 45.7 µM | > 45.7 µM | > 45.7 µM |  | very short | 14-18%
